The subject of test [1] is Staphylococcus aureus ATCC 6538 (MSSA). In words: Zone of inhibition test (agar well). The format is cell-based. As to conditions: S. aureus ATCC 6538; 7 mm well, about 0.2 ml product, 37° C., 24 hours. As to the method: (§1) An overnight culture of the test organism is diluted to 0.40 OD at 600 nm and then further diluted 10^−2 to obtain approximately 3×10^6 CFU/ml for the inoculation of TSA or SDA plates as follows: a 0.5 ml volume is spread across the surface of a sterile agar plate and allowed to dry. A 7 mm well is made in the center of the agar plate and approximately 0.2 ml of product is pipetted into the well. Additionally, Finipil is tested against S. aureus. The plates are incubated at 37° C. for 24 hours and the zones of inhibition are determined by measuring the diameter of the clear circular area around the product filled well.
(§2) *Becton Dickinson BBL Cefoxitin 30 microgram Sensi-Disk® sensitivity disks will be used to indicate susceptibility to Methicillin

The test system of test [2] is Staphylococcus aureus ATCC 33592 (MRSA). In words: Zone of inhibition test (agar well). The format is cell-based. As to conditions: S. aureus ATCC 33592 (methicillin resistant); 7 mm well, 37° C., 24 hours. As to the method: as §1, §2

In the case of `CO[C@@]1(NC(=O)Cc2cccs2)C(=O)N2C(C(=O)O)=C(COC(N)=O)CS[C@@H]21` [Cefoxitin disk, Cefoxitin], the “Zone of inhibition (diameter)” value in test [1] is 33 mm; in test [2], 10 mm.
